Where “and” joins values, the source holds several entries; their conditions need not be identical. Identical values can stand only once. Like-named read-outs stand apart in the source and are kept apart here.
Tests used:
[1] = system: croton oil-induced granuloma; experiment: Croton Oil-induced Granuloma (granuloma pouch); format: in vivo, male Sprague-Dawley rats; settings: for inhibition in vivo at 0.01 mg / inhibition in vivo at 0.1 mg / inhibition in vivo at 1 mg: Rattus norvegicus, 168 h
Protocol: Groups of 5 male Sprague-Dawley rats each weighing 160-180 g were used. Under ether anesthesia, the dorsum of animals was closely clipped, and air sac was formed by injecting air (20 ml) subcutaneously. Next day cotton seed oil containing 1% croton oil was injected into the air sac. Drugs to be tested were suspended in the cotton seed oil containing 1% croton oil, and administered. After 7 days, the blood was taken from the animal under ether anesthesia. Then, the granuloma pouch fluid (exudate) was collected, and the fluid volume was measured. The pouch wall formed around granuloma and thymus were also excised and weighed.

[2] = system: granuloma; experiment: Inhibitory Effects on Granuloma Growth (Paper Disk Method); format: in vivo, male Sprague-Dawley rats; settings: Rattus norvegicus, topical, 168 h, rat, paper disk; ointment 0.1%, 50 mg once a day, 7 days; read-out: Weight of granuloma, per cent of change of the controls
Protocol: Ointment to be tested was prepared usign white soft paraffin as the base and containing dexamethasone at 0.1% concentration.
Groups of 5 male Sprague-Dawley rats each weighing 150-170 g were used. Under ether anesthesia, the dorsum of animals was closely clipped, and medianly incised. After each one pre-weighed paper disk (8-mm diameter, 1-mm thick, weighing about 30 mg; Toyo-Roshi filter paper) was inserted subcutaneously into both sides of the dorsal incision, the incision was sutured. In order to prevent bacterial infection, penicillin G potassium salt (2,000 units) per rat was intramascularly injected after the surgery. Base or ointment to be tested (50 mg each) was rubbed carefully into the skin over the paper disk inserted site, for 30 seconds once a day for the duration of 7 days. Rats were slipped plastic cangs on to prevent them from licking the drug applied sites. On the 8th day of the test, rats were sacrificed under ether anesthesia, and granulomas were carefully excised. Granulomas were dried at 40° C. for 24 h, and their dry weights were recorded.
Inhibitory effects of dexamethasone derivatives on the weight increase of granuloma of experimental animals as compared with those of control animals are shown as per cent of inhibition ov er the control in Table 1. Figures wihth asterisks in the table indicate signfiicant difference. The same will be applied to the following other tables.

[3] = 0.01 mg/rat, 7 days, read-out: Effects on granuloma weight, per cent of inhibition over the control
[4] = 0.01 mg/rat, 7 days, read-out: Effects on pouch fluid (exudate) volume, per cent of inhibition over the control
[5] = 0.1 mg/rat, 7 days, read-out: Effects on granuloma weight, per cent of inhibition over the control
[6] = 0.1 mg/rat, 7 days, read-out: Effects on pouch fluid (exudate) volume, per cent of inhibition over the control
[7] = 1.0 mg/rat, 7 days, read-out: Effects on granuloma weight, per cent of inhibition over the control
[8] = 1.0 mg/rat, 7 days, read-out: Effects on pouch fluid (exudate) volume, per cent of inhibition over the control
[9] = read-out: Effects on granuloma weight, per cent of inhibition over the control

Compound | inhibition in vivo at 0.01 mg [1, 3] [%] | inhibition in vivo at 0.01 mg [1, 4] [%] | inhibition in vivo at 0.1 mg [1, 5] [%] | inhibition in vivo at 0.1 mg [1, 6] [%] | inhibition in vivo at 1 mg [1, 7] [%] | inhibition in vivo at 1 mg [1, 8] [%] | change in vivo at 0.1 %, 50 mg [2] [%] | other results
CC(=O)OC[C@H]1O[C@@H](OCC(=O)[C@H]2[C@H](C)C[C@H]3[C@@H]4C[C@H](F)C5=CC(=O)C=C[C@]5(C)[C@@]4(F)[C@@H](O)C[C@@]32C)[C@H](OC(C)=O)[C@@H](OC(C)=O)[C@@H]1OC(C)=O [Compound 113β, glucosyldiflucortolone (acetyl derivative)] | 47.4 ± 11 | 90.5 ± 6.6 | 60.8 ± 9.3 | 97.1 ± 0.5 | 90.5 ± 0.6 | 97.5 ± 0.7 | – | –
C[C@@H]1C[C@H]2[C@@H]3CCC4=CC(=O)C=C[C@]4(C)[C@@]3(F)[C@@H](O)C[C@]2(C)[C@@]1(O)C(=O)CO[C@@H]1O[C@H](C(=O)O)[C@@H](O)[C@H](O)[C@H]1O [Compound 55β, β-glucuronyldexamethasone] | – | – | – | – | – | – | -37.4 ± 7.1 | –
CC(=O)N[C@H]1[C@H](OCC(=O)[C@@]2(O)[C@H](C)C[C@H]3[C@@H]4CCC5=CC(=O)C=C[C@]5(C)[C@@]4(F)[C@@H](O)C[C@@]32C)O[C@H](CO)[C@H](O)[C@@H]1O [Compound 45β, N-acetylgalactosaminyldexamethasone] | – | – | – | – | – | – | -28.1 ± 3.5 | –
CCCC(=O)O[C@]1(C(=O)COC(C)=O)CC[C@H]2[C@@H]3C[C@H](F)C4=CC(=O)C=C[C@]4(C)[C@@]3(F)[C@@H](O)C[C@@]21C [Diflupredonate, reference compound] | -11 ± 23.1 | 17.4 ± 13.5 | 35 ± 10.3 | 65.3 ± 12.1 | 78.8 ± 5 | 96.2 ± 1.2 | – | Effects on thymus weight, per cent of inhibition over the control thymus weight ([1]; 0.01 mg/rat, 7 days): 14.7 ± 10.4 per cent; Effects on thymus weight, per cent of inhibition over the control thymus weight ([1]; 0.1 mg/rat, 7 days): 71.2 ± 2.9 per cent; Effects on thymus weight, per cent of inhibition over the control thymus weight ([1]; 1.0 mg/rat, 7 days): 71.8 ± 3.2 per cent
CC(=O)N[C@H]1[C@H](OCC(=O)[C@@]2(O)[C@H](C)C[C@H]3[C@@H]4CCC5=CC(=O)C=C[C@]5(C)[C@@]4(F)[C@@H](O)C[C@@]32C)O[C@H](COC(C)=O)[C@H](OC(C)=O)[C@@H]1OC(C)=O [Compound 44β] | – | – | – | – | – | – | -16.5 ± 3 | –
COC(=O)[C@H]1O[C@@H]2OC(C)(OCC(=O)[C@@]3(O)[C@H](C)C[C@H]4[C@@H]5CCC6=CC(=O)C=C[C@]6(C)[C@@]5(F)[C@@H](O)C[C@@]43C)O[C@@H]2[C@@H](OC(C)=O)[C@H]1OC(C)=O (stereo partly shown) [Compound 64'] | – | – | – | – | – | – | -41.3 ± 2.3 | –
CC(=O)N[C@H]1[C@H](OCC(=O)[C@@]2(O)[C@H](C)C[C@H]3[C@@H]4CCC5=CC(=O)C=C[C@]5(C)[C@@]4(F)[C@@H](O)C[C@@]32C)O[C@H](CO)[C@@H](O)[C@@H]1O [Compound 35β, β-N-acetylglucosaminyldexamethasone] | – | – | – | – | – | – | -21.9 ± 4.2 | –
C[C@@H]1C[C@H]2[C@@H]3CCC4=CC(=O)C=C[C@]4(C)[C@@]3(F)[C@@H](O)C[C@]2(C)[C@@]1(O)C(=O)CO[C@@H]1O[C@H](C(=O)O)[C@H](O)[C@H](O)[C@H]1O [Compound 65β, β-galacturonyldexamethasone] | – | – | – | – | – | – | -33 ± 3.3 | –
Cc1ccc(C(=O)OC[C@H]2O[C@@H](OCC(=O)[C@H]3[C@H](C)C[C@H]4[C@@H]5C[C@H](F)C6=CC(=O)C=C[C@]6(C)[C@@]5(F)[C@@H](O)C[C@@]43C)[C@H](OC(=O)c3ccc(C)cc3)[C@@H](OC(=O)c3ccc(C)cc3)[C@@H]2OC(=O)c2ccc(C)cc2)cc1 [Compound 109β, Glucosyldiflucortolone (p-toluoyl derivative)] | – | – | – | – | – | – | -0.2 ± 3.7 | –
COC(=O)[C@H]1O[C@@H](OCC(=O)[C@@]2(O)[C@H](C)C[C@H]3[C@@H]4CCC5=CC(=O)C=C[C@]5(C)[C@@]4(F)[C@@H](O)C[C@@]32C)[C@H](OC(C)=O)[C@@H](OC(C)=O)[C@H]1OC(C)=O [Compound 64β] | – | – | – | – | – | – | -32.5 ± 0.5 | –
C[C@@H]1C[C@H]2[C@@H]3C[C@H](F)C4=CC(=O)C=C[C@]4(C)[C@@]3(F)[C@@H](O)C[C@]2(C)[C@H]1C(=O)CO[C@@H]1O[C@H](COC(=O)c2ccc(Cl)cc2)[C@@H](OC(=O)c2ccc(Cl)cc2)[C@H](OC(=O)c2ccc(Cl)cc2)[C@H]1OC(=O)c1ccc(Cl)cc1 [Compound 112β, glucosyldiflucortolone (p-chlorobenzoyl derivative)] | 15.9 ± 6.9 | 36.1 ± 9.2 | 27.1 ± 2.4 | 43.7 ± 2.5 | 61.3 ± 2.2 | 93.1 ± 1.6 | – | –
CCC(=O)O[C@]1(C(=O)COC(C)=O)[C@@H](C)C[C@H]2[C@@H]3CCC4=CC(=O)C=C[C@]4(C)[C@@]3(F)[C@@H](O)C[C@@]21C [Betamethasone acetate propionate, reference compound] | – | – | – | – | – | – | – | Effects on granuloma weight, per cent of inhibition over the control ([1]; 0.01 mg/rat, 7 days): 21.2 ± 6.4 per cent; Effects on granuloma weight, per cent of inhibition over the control ([1]; 0.1 mg/rat, 7 days): 26.0 ± 6.9 per cent; Effects on pouch fluid (exudate) volume, per cent of inhibition over the control ([1]; rat, in vivo): 27.6 ± 8.1 and 43.6 ± 4.7
C[C@@H]1C[C@H]2[C@@H]3C[C@H](F)C4=CC(=O)C=C[C@]4(C)[C@@]3(F)[C@@H](O)C[C@]2(C)[C@H]1C(=O)CO[C@@H]1O[C@H](COC(=O)c2ccccc2)[C@@H](OC(=O)c2ccccc2)[C@H](OC(=O)c2ccccc2)[C@H]1OC(=O)c1ccccc1 [Compound 110β, glucosyldiflucortolone (benzoyl derivative)] | 16.8 ± 7.1 | 34.4 ± 8.9 | 58.7 ± 1.4 | 79.6 ± 8.5 | 70.3 ± 1.9 | 97.2 ± 0.5 | – | –
CCCCC(=O)OCC(=O)[C@H]1[C@H](C)C[C@H]2[C@@H]3C[C@H](F)C4=CC(=O)C=C[C@]4(C)[C@@]3(F)[C@@H](O)C[C@@]21C [Diflucortolone valerate, reference compound] | – | – | – | – | – | – | – | inhibition in vivo at 0.01 mg [1, 9]: 12.8 ± 5.1%; inhibition in vivo at 1 mg [1, 9]: 66 ± 7.1%
Cc1ccc(C(=O)OC[C@H]2O[C@@H](OCC(=O)[C@@]3(O)[C@@H](C)C[C@H]4[C@@H]5CCC6=CC(=O)C=C[C@]6(C)[C@@]5(F)[C@@H](O)C[C@@]43C)[C@H](OC(=O)c3ccc(C)cc3)[C@@H](OC(=O)c3ccc(C)cc3)[C@@H]2OC(=O)c2ccc(C)cc2)cc1 [Compound 91β, Glucosylbetamethasone (per Tol)] | 17.1 ± 6.7 | 25.3 ± 5.3 | 6.9 ± 5.1 | 18.4 ± 6.1 | 4.3 ± 8.2 | 18.9 ± 8.8 | – | –
C[C@H]1C[C@H]2[C@@H]3CCC4=CC(=O)C=C[C@]4(C)[C@@]3(F)[C@@H](O)C[C@]2(C)[C@@]1(O)C(=O)CO[C@@H]1O[C@H](COC(=O)c2ccccc2)[C@@H](OC(=O)c2ccccc2)[C@H](OC(=O)c2ccccc2)[C@H]1OC(=O)c1ccccc1 [Compound 100β, glucosylbetamethasone (benzoyl derivative)] | 11 ± 6.5 | 20.8 ± 11.7 | 4.1 ± 11.3 | 17.5 ± 5.9 | 60.5 ± 5.8 | 69.4 ± 6.7 | – | –
CCCCC(=O)O[C@]1(C(=O)CO)[C@@H](C)C[C@H]2[C@@H]3CCC4=CC(=O)C=C[C@]4(C)[C@@]3(F)[C@@H](O)C[C@@]21C [Betamethasone valerate, reference compound] | – | – | – | – | 18.7 ± 11.7 | 23.9 ± 12.1 | – | Effects on thymus weight, per cent of inhibition over the control thymus weight ([1]; 1.0 mg/rat, 7 days): 37.0 ± 3.0 per cent and 58.9 ± 3.3 per cent
Diflurasone acetate [reference compound] | – | – | – | – | – | – | – | Effects on granuloma weight, per cent of inhibition over the control ([1]; 0.01 mg/rat, 7 days): -13.1 ± 13.3 per cent; Effects on granuloma weight, per cent of inhibition over the control ([1]; 0.1 mg/rat, 7 days): 4.0 ± 10.5 per cent; Effects on granuloma weight, per cent of inhibition over the control ([1]; 1.0 mg/rat, 7 days): 11.7 ± 12.4 per cent

— patent publication US5945404A, “21-Substituted steroid compound” (priority 1993, dated 1999)
